Results reported in EP1067137B1, “Granules of alpha-L-aspartyl-L-phenylalnine methyl ester” (Ajinomoto Co., Inc., priority 1991, dated 1992).
Peptide text beside a SMILES is read from it.

Key:
[1] = relative to sucrose (cane sugar); cited from earlier work
[2] = Dissolution time of α-APM granules in water; assay type: physicochemical; settings: 8 g of sample in 2 liters of water, 20 °C, 350 rpm
Method: The dissolution time of the α-APM granules thus obtained was measured by the method mentioned below, and the results obtained are shown in Table 1.
First, 2 liters of water were previously put in a 3-liter beaker and stirred with a magnetic stirrer.
The size of the stirrer to be used for the stirring was 70 mm x 15 mm φ and the rotation number was set to be 350 rpm with Whatman Dataplate 440. The temperature of the water was kept to be 20 ° C by the use of a hot plate. 8 g of a sample was put into the water under the determined condition, whereupon the time needed for completely dissolving it in the water was measured to be the dissolution time of the sample.

[3] = Original Powder before Granulation
[4] = granules, Grain Size 100 to 150 µm
[5] = granules, Grain Size 150 to 180 µm
[6] = granules, Grain Size 180 to 300 µm
[7] = granules, Grain Size 300 to 500 µm
[8] = granules, Grain Size 500 to 850 µm
[9] = granules, Grain Size 850 to 1400 µm

Row | Dissolution Time [2, 3] [min] | Dissolution Time [2, 4] [min] | Dissolution Time [2, 5] [min] | Dissolution Time [2, 6] [min] | Dissolution Time [2, 7] [min] | Dissolution Time [2, 8] [min] | Dissolution Time [2, 9] [min] | Compound | sweetness [1]
1 |  |  |  |  |  |  |  | COC(=O)[C@H](Cc1ccccc1)NC(=O)[C@@H](N)CC(=O)O [α-APM, α-L-aspartyl-L-phenylalanine methyl ester] (H-Asp-Phe-OMe) | about 200 times that of sucrose
2 | 60 | 36 | 20 | 12 | 19 | 27 | 38 | COC(=O)[C@H](Cc1ccccc1)NC(=O)[C@@H](N)CC(=O)O [sample C, α-L-aspartyl-L-phenylalanine methyl ester] (H-Asp-Phe-OMe) | 
3 | 15 | 10 | 7 | 9 | 17 | 24 | 35 | COC(=O)[C@H](Cc1ccccc1)NC(=O)[C@@H](N)CC(=O)O [sample B, α-L-aspartyl-L-phenylalanine methyl ester] (H-Asp-Phe-OMe) | 
4 | 30 | 15 | 8 | 11 | 18 | 25 | 38 | COC(=O)[C@H](Cc1ccccc1)NC(=O)[C@@H](N)CC(=O)O [sample A, α-L-aspartyl-L-phenylalanine methyl ester] (H-Asp-Phe-OMe) | 
